pIC50, pKi: −log10 of the molar value. Where two headings read alike, the source gives them in different places. Some results are limits rather than exact numbers.

In experiment [1] the target is T1, P2X7 (Homo sapiens (Human), UniProt Q99572). Put plainly: Radioligand binding, human P2X7-1321N1 cell membranes, tracer tritiated A-804598. As for the experimental part: (§1) On the day of the experiment, cell membrane preparations were made according to standard published methods. […] The compound can be prepared as described in the literature. […] The assay was terminated by filtration (GF/B filters pre-soaked with 0.3% PEI) and washed with washing buffer (Tris-HCl 50 mM). The IC50 generated in the binding assay was corrected for tracer concentration and affinity of the tracer to derive at the affinity (Ki) of the test compounds.

Experiment [2] addresses T1, P2X7. Put plainly: Ca2+ flux (FLIPR) in 1321N1 cells expressing recombinant human P2X7 channel. The note with it: 250 μM BzATP, Calcium-4 dye. It counts as cell-based. The procedure, abridged: (§2)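 1321N1 cells stably expressing P2X7 were loaded with Calcium-4 dye for 60 min in HEPES-buffered saline (pH 7.40, 1 mM CaCl2, 1 mM MgCl2), then preincubated with test compounds for 30 min. Fluorescence change was read 180 s after agonist addition.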

Experiment [3] concerns the target T2, rat P2X7 (Rattus norvegicus (Rat), UniProt Q64663). Description: Ca2+ flux (FLIPR) in 1321N1 cells expressing recombinant rat P2X7 channel. The following applies: 250 μM BzATP, Calcium-4 dye. It counts as cell-based. The procedure, abridged:
as §2

For experiment [4], the target named is T2, rat P2X7. Description: Radioligand binding, rat P2X7-1321N1 cell membranes, tracer tritiated A-804598. As for the experimental part: as §1
For experiment [5], the target named is T1, P2X7. Description: P2X7 antagonism in human whole blood (IL-1β release, ELISA). It counts as cell-based. The note with it: IL-1β release in human blood, LPS 30 ng/ml + Bz-ATP 1 mM. As for the experimental part: Human blood was collected using a blood donor program. […] Cells were incubated for an additional 1.5 hours.
The target of experiment [6] is T1, P2X7. Put plainly: P2X7 antagonism in human PBMCs (IL-1β release, ELISA). It counts as cell-based. The note with it: test compound 10 μM, IL-1β release in human PBMCs, LPS 30 ng/ml + Bz-ATP 0.5 mM, read-out: PBMC 10 μM (% control). The procedure:
Human blood was collected using a blood donor program. […] Cells were incubated for an additional 1.5 hours. […] In Table 2, when the data cell has been left blank, it is intended to mean that the compound was not tested in that assay.

The mark [7] stands for this setting: human P2X7-1321N1 membranes, 1 hour at 4° C., IC50 corrected for tracer concentration and affinity.
The mark [8] stands for this setting: rat P2X7-1321N1 membranes, 1 hour at 4° C., IC50 corrected for tracer concentration and affinity.

T2 sequence (Q64663 whole entry): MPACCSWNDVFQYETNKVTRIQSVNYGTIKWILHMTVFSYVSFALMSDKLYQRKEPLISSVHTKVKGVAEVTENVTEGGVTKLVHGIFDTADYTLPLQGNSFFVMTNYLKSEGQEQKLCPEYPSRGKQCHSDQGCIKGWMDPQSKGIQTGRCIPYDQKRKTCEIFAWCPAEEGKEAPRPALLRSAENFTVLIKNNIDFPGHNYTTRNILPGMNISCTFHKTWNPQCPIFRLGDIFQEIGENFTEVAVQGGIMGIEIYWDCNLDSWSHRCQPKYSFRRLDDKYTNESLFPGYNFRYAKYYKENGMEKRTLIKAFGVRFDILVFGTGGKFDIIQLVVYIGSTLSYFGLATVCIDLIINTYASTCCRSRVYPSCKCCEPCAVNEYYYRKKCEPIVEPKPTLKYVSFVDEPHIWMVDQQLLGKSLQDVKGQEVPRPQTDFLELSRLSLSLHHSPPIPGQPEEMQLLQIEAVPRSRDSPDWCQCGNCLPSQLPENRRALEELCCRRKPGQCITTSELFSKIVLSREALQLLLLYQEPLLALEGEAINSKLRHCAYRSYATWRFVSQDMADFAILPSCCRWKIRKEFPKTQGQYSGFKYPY
T1 sequence (Q99572 whole entry): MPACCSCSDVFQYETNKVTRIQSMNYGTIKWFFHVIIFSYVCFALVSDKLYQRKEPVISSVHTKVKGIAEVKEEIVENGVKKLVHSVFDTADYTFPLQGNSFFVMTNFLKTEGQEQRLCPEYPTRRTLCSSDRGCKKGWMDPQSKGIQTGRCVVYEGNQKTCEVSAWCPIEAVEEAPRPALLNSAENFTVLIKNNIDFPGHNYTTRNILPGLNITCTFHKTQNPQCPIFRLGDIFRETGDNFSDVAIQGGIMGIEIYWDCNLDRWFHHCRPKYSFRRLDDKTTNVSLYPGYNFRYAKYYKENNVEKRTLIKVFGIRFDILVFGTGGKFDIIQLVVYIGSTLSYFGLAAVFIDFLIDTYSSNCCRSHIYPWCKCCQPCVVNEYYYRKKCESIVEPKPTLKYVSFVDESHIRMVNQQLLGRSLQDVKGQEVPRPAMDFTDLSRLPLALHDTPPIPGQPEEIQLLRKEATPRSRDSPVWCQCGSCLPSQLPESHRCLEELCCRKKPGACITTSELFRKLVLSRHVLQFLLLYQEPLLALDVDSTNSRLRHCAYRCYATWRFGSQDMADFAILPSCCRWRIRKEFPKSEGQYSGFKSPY

In the case of `COCCn1ccc(-c2nc(C)nc3c2C[C@@H](C)N(C(=O)c2cccc(C(F)(F)F)c2Cl)C3)n1` (single isomer, unassigned) [Example 128, (R*)-(2-chloro-3-(trifluoromethyl)phenyl)(4-(1-(2-methoxyethyl)-1H-pyrazol-3-yl)-2,6-dimethyl-5,6-dihydropyrido[3,4-d]pyrimidin-7(8H)-yl)methanone], the pKi at P2X7 [1] was 7.50; at rat P2X7 [4], 8.52. In addition, the negative-log IC50 (pIC50) on P2X7 [2] is 7.53; at rat P2X7 [3] it was 8.01.

Consider `O=C(c1cccc(Cl)c1Cl)N1CCc2c(ncnc2-c2ccccc2)C1` [Example 2, 7-[(2,3-Dichlorophenyl)carbonyl]-4-phenyl-5,6,7,8-tetrahydropyrido[3,4-d]pyrimidine], for which the results for the negative-log Ki (pKi) at P2X7 [1] (setting [7]) and at rat P2X7 [4] (setting [8]) were 7.02 and 6.60, respectively. Further, the results for the pIC50 at P2X7 [2] and on rat P2X7 [3] were 7.44 and 5.49, respectively.

As for `O=C(c1cccc(Cl)c1Cl)N1CCc2c(ncnc2-c2ccn[nH]2)C1` [Example 7, 7-[(2,3-Dichlorophenyl)carbonyl]-4-(1H-pyrazol-5-yl)-5,6,7,8-tetrahydropyrido[3,4-d]pyrimidine], the figures for the pIC50 on P2X7 [5], on P2X7 [2] and at rat P2X7 [3] were 6.25, 7.68 and 6.31, respectively. Also, the values for the pKi at P2X7 [1] (setting [7]) and on rat P2X7 [4] (setting [8]) were 7.81 and 7.84, respectively.

With `O=C(c1cccc(Cl)c1Cl)N1CCc2c(ncnc2-c2ccccn2)C1` [Example 11, 7-[(2,3-Dichlorophenyl)carbonyl]-4-pyridin-2-yl-5,6,7,8-tetrahydropyrido[3,4-d]pyrimidine], the pKi at P2X7 [1] (setting [7]) was 7.43; at rat P2X7 [4] (setting [8]) it was 7.21. The results for the negative-log IC50 (pIC50) at P2X7 [2] and at rat P2X7 [3] were 6.38 and below 5.00, respectively.

Turning to `O=C(c1cccc(C(F)(F)F)c1Cl)N1CCc2c(ncnc2-c2ccccn2)C1` [Example 12, 7-{[2-Chloro-3-(trifluoromethyl)phenyl]carbonyl}-4-pyridin-2-yl-5,6,7,8-tetrahydropyrido[3,4-d]pyrimidine], the pIC50 on P2X7 [5] was 5.70; on P2X7 [2] it was 7.55; on rat P2X7 [3], 5.22. For the same compound, the pKi is 7.23 on P2X7 [1] (setting [7]) and 7.24 on rat P2X7 [4] (setting [8]).

Consider `O=C(c1cccc(Cl)c1Cl)N1CCc2c(ncnc2-c2cnccn2)C1` [Example 14, 7-[(2,3-Dichlorophenyl)carbonyl]-4-pyrazin-2-yl-5,6,7,8-tetrahydropyrido[3,4-d]pyrimidine], for which the figures for the pKi on P2X7 [1] (setting [7]) and on rat P2X7 [4] (setting [8]) were 7.20 and 7.50, respectively. Further, the pIC50 is 7.60 at P2X7 [2] and 5.50 on rat P2X7 [3].

Take `Cc1c(C(=O)N2CCc3c(ncnc3-c3cnccn3)C2)cccc1C(F)(F)F` [Example 15, 7-{[2-Methyl-3-(trifluoromethyl)phenyl]carbonyl}-4-pyrazin-2-yl-5,6,7,8-tetrahydropyrido[3,4-d]pyrimidine]: the results for the pKi at P2X7 [1] (setting [7]) and on rat P2X7 [4] (setting [8]) were 7.10 and 7.30, respectively. Moreover, the values for the pIC50 at P2X7 [2] and on rat P2X7 [3] were 7.50 and 5.20, respectively.

With `O=C(c1cccc(C(F)(F)F)c1Cl)N1CCc2c(ncnc2-c2ccn[nH]2)C1` [Example 18, (4-(1H-pyrazol-5-yl)-5,6-dihydropyrido[3,4-d]pyrimidin-7(8H)-yl)(2-chloro-3-(trifluoromethyl)phenyl)methanone], the results for the pKi on P2X7 [1] (setting [7]) and on rat P2X7 [4] (setting [8]) were 7.70 and 8.30, respectively. The pIC50 was 7.99 on P2X7 [2] and 7.12 at rat P2X7 [3].

For the compound `Cn1ccc(-c2ncnc3c2CCN(C(=O)c2cccc(C(F)(F)F)c2Cl)C3)n1` [Example 19, 7-{[2-Chloro-3-(trifluoromethyl)phenyl]carbonyl}-4-(1-methyl-1H-pyrazol-3-yl)-5,6,7,8-tetrahydropyrido[3,4-d]pyrimidine], the pIC50 on P2X7 [5] was 6.20; at P2X7 [2], 7.58; on rat P2X7 [3], 8.00. For the same compound, the pKi on P2X7 [1] (setting [7]) was 7.60. The remaining activity at 10 µM on P2X7 [6] came to 13.8%.

As for `O=C(c1ccc(Cl)c(F)c1Cl)N1CCc2c(ncnc2-c2ccn[nH]2)C1` [Example 20, 7-[(2,4-Dichloro-3-fluorophenyl)carbonyl]-4-(1H-pyrazol-5-yl)-5,6,7,8-tetrahydropyrido[3,4-d]pyrimidine], the pIC50 on P2X7 [5] is 5.91; on P2X7 [2], 8.23; on rat P2X7 [3], 6.47. Besides, the pKi at P2X7 [1] (setting [7]) is 7.60; at rat P2X7 [4] (setting [8]) it was 8.46. On P2X7 [6], the remaining activity at 10 µM was -0.2%.

As to `O=C(c1cccc(Cl)c1Cl)N1CCc2c(ncnc2-n2nccn2)C1` [Example 23, 7-[(2,3-Dichlorophenyl)carbonyl]-4-(2H-1,2,3-triazol-2-yl)-5,6,7,8-tetrahydropyrido[3,4-d]pyrimidine], at P2X7 [5], the pIC50 was 5.95.

On to `Cc1nc2c(c(-c3ccn[nH]3)n1)CCN(C(=O)c1cccc(C(F)(F)F)c1Cl)C2` [Example 33, 7-{[2-Chloro-3-(trifluoromethyl)phenyl]carbonyl}-2-methyl-4-(1H-pyrazol-5-yl)-5,6,7,8-tetrahydropyrido[3,4-d]pyrimidine], for which the pIC50 on P2X7 [5] is 5.95; at P2X7 [2], 8.10; on rat P2X7 [3] it was 5.96. Further, the pKi at P2X7 [1] (setting [7]) is 7.79; at rat P2X7 [4] (setting [8]) it was 7.92.

Turning to `Cc1nc2c(c(-c3ccn[nH]3)n1)CCN(C(=O)c1cccc(Cl)c1Cl)C2` [Example 34, 7-[(2,3-Dichlorophenyl)carbonyl]-2-methyl-4-(1H-pyrazol-5-yl)-5,6,7,8-tetrahydropyrido[3,4-d]pyrimidine], the pKi on P2X7 [1] (setting [7]) was 7.20; on rat P2X7 [4] (setting [8]) it was 7.70. Moreover, the negative logarithm of the IC50 (pIC50) at P2X7 [2] was 7.06; at rat P2X7 [3], 5.70.

For `Cc1nc2c(c(-c3[nH]ncc3F)n1)CCN(C(=O)c1cccc(C(F)(F)F)c1Cl)C2` [Example 35, 7-{[2-Chloro-3-(trifluoromethyl)phenyl]carbonyl}-4-(4-fluoro-1H-pyrazol-5-yl)-2-methyl-5,6,7,8-tetrahydropyrido[3,4-d]pyrimidine], the pKi at P2X7 [1] (setting [7]) was 7.40; at rat P2X7 [4] (setting [8]), 7.90. In addition, the pIC50 is 7.32 at P2X7 [2] and 6.57 on rat P2X7 [3].

`Cc1nc2c(c(-c3[nH]ncc3C(F)(F)F)n1)CCN(C(=O)c1cccc(C(F)(F)F)c1Cl)C2` [Example 39, 7-{[2-Chloro-3-(trifluoromethyl)phenyl]carbonyl}-2-methyl-4-[4-(trifluoromethyl)-1H-pyrazol-5-yl]-5,6,7,8-tetrahydropyrido[3,4-d]pyrimidine]: the negative logarithm of the Ki (pKi) on P2X7 [1] (setting [7]) is 7.30; at rat P2X7 [4] (setting [8]), 7.75. The pIC50 was 7.00 on P2X7 [2] and 7.60 on rat P2X7 [3].

Consider `O=C(c1cccc(C(F)(F)F)c1Cl)N1CCc2c(ncnc2-c2cscn2)C1` [Example 43, 7-{[2-Chloro-3-(trifluoromethyl)phenyl]carbonyl}-4-(1,3-thiazol-4-yl)-5,6,7,8-tetrahydropyrido[3,4-d]pyrimidine], for which the pKi at P2X7 [1] (setting [7]) is 7.30; at rat P2X7 [4] (setting [8]), 8.00. Also, the pIC50 on P2X7 [2] is 7.80; on rat P2X7 [3], 6.80.

With `O=C(c1cccc(Cl)c1Cl)N1CCc2c(ncnc2-n2nccn2)C1` [Example 107, 7-[(2,3-Dichlorophenyl)carbonyl]-4-(2H-1,2,3-triazol-2-yl)-5,6,7,8-tetrahydropyrido[3,4-d]pyrimidine], the pIC50 at P2X7 [5] is 5.95; at P2X7 [2] it was 8.35; at rat P2X7 [3], 5.61. In addition, the pKi on P2X7 [1] (setting [7]) was 8.02; on rat P2X7 [4] (setting [8]) it was 7.62.

The values above are taken from patent US9096596B2 (Janssen Pharmaceutica NV, priority 2013, dated 2015).
